Marks after values point to notes of the source that are not given here.
Tested on: Nitric Oxide Synthase (NOS) system
Assay: Residual nitrite in plastic casing test tube ground pork loin sausages (Example 10)
Conditions: for Nitrite Pellet / Nitrite Supernatant: cooked
Protocol: The desired cured color could not initially be generated in a variety of processed meat products in a pilot plant setting. […] Pork loins (N=2) procured from a local meat distributor (Mar. 18, 2019) were used. Eight pounds of pork loins were ground (½″ then ¼″ plate) and weighed out in one pound portions. Plastic waterproof casings (2″ diameter) were clipped at one end. One pound of ground pork loin was placed in the casing and two pounds of brine (L-arginine concentration 7498 ppm) were added and the open end of the casing clipped. Based on laboratory test tube studies, meat samples would absorb 20-25% of the solution which equates to absorption of approximately 1500 ppm of L-arginine. Each plastic casing contained the same proportion of meat and brine as conducted during previous laboratory experiments (Table 12). A control was manufactured by substituting distilled water for the L-arginine brine.
After thermal processing the plastic casing test tubes were cut open and emptied into beakers, then separated into residue (meat particles) and supernatant (liquid) via paper filtration into 50 mL conical tubes for collection and subsequent analysis for residual nitrite (supernatant) and cured pigment formation/nitrosylation (meat residue).
Nitrosylation and residual nitrite analyses was performed under reduced light to avoid loss of pigmentation. L-arginine treated test tube pork sausage averaged 53.12 to 72.30 ppm of residual nitrite in the cooked meat pellet with percent nitrosylation ranging from 33 to 60 percent (Table 13). The brine was formulated to deliver 1500 ppm ingoing L-arginine at 25% absorption into the meat after two hours of immersion in the brine solution.

Compound: N=C(N)NCCC[C@H](N)C(=O)O [L-arginine]
- Nitrite Pellet (10% L-arginine brine (formulated for 1500 ppm L-arginine)): 72.31^a ppm
- Nitrite Supernatant (10% L-arginine brine): 33.48^a ppm
- Nitrite Pellet (15% L-arginine brine (formulated for 1500 ppm L-arginine)): 53.12^ab ppm
- Nitrite Supernatant (15% L-arginine brine): 36.50^a ppm
- Nitrite Pellet (20% L-arginine brine (formulated for 1500 ppm L-arginine)): 59.52^ab ppm
- Nitrite Supernatant (20% L-arginine brine): 40.80^a ppm
- Nitrite Pellet (25% L-arginine brine (formulated for 1500 ppm L-arginine)): 59.63^ab ppm
- Nitrite Supernatant (25% L-arginine brine): 35.34^a ppm
- residual nitrite in the cooked meat pellet (range of averages over brine additions 10-25%): 53.12 to 72.30 ppm

From patent US20230029496A1, “AMINO ACID ALTERNATIVE CURING SYSTEM” (THE TEXAS A&M UNIVERSITY SYSTEM, priority 2019, published 2023)
